Measurements reported in patent US8735140B2, “Preservation and composition of bioprocess algae for production of lipids, seedstock, and feed” (Kuehnle AgroSystems, Inc., priority 2008, dated 2014).

Columns and labels:
Assay type in all cases: cell-based
[1] = tested on: Tetraselmis KAS633; test: Trehalose preservation, storage as liquid in sponge matrix
Procedure: (§1) Flask cultures (40 ml) of cells are grown to mid-log phase with a density between 3×10^6 and 3×10^7 cells/ml, and are centrifuged. Culture medium is removed after centrifugation, resulting in more concentrated algae cells. Cells are then re-suspended in fresh medium and left overnight. Cells are centrifuged again the next day in order to remove the medium, and are then re-suspended in fresh or salt water without any nutrient. The cell density of the suspension is determined prior to storage under the various treatments. Cells in 40 ml flask cultures are grown to mid-log phase with a density of between 3×10^6 and 3×10^7 cells/ml, and are centrifuged. Culture medium is removed after centrifugation, resulting in more concentrated algae cells. Cells are then re-suspended in ideal glass solution consisting of fresh culture medium and trehalose at a concentration of 0.1M, 0.3M, and 0.5M (dihydrate trehalose 100 from Hayashibara Co. Ltd, Okayama, Japan), respectively, and left overnight with mild agitation. Cells are centrifuged again to remove the ideal glass solution the next day, and are re-suspended in fresh or salt water without any nutrient. The cell density of the resulting suspension is determined prior to storage under the various treatments. (Some cells were also treated with a 0.5M sorbitol solution). In one specific embodiment, non-toxic sponges made of polyurethane matrix ([…]-plugs® from Jaece Industries, Fisher Scientific 14-127-40B), 20 mm in diameter, are cut in half length-wise to fit the wells in the BD Falcon 12-well tissue culture plates and autoclave sterilized. One sponge is placed in each well of the tissue culture plate. 2.0 ml algae cell suspension is pipetted into each well, and the sponge is squeezed with sterile forceps to produce a faster uptake of the cell suspension into the sponge. Plates are subsequently closed and placed under low light and at ambient temperature. After stored under the above preservation conditions for 5 months, algae cells can be rejuvenated by squeezing the sponges with sterile forceps to allow a complete uptake of all cells in the suspension, including those cells not in the sponge such as cells remaining in the well. Cells in the sponges are then removed from the 12-well plates and placed in 10 ml of fresh medium under light. Cell viability is determined by comparing the cell growth in control set with the experimental set. Specifically, cell counts are performed on all samples. The averaged density value (in cells per ml) for all the cultures after treatment is defined as “rejuvenation cell count.” In some samples, the percent recovery of cells immediately after storage is also determined. The formulae are illustrated as follows: Growth=(rejuvenation cell count)/(initial cell count) Cell recovery after storage=(cell density after storage)/(initial cell density), with controls set at 100% cell recovery. Viability after storage and rejuvenation in nutrient medium=(Growth of treatment)/(Growth of control)×100%, with controls set at 100% viability

[2] = tested on: Chlorella (KAS503); test: as above
Procedure: as §1

[3] = tested on: Chlorella (KAS603); test: as above
Procedure: as §1

[4] = tested on: algal cells; test: Trehalose preservation, evaporative drying and rehydration
Procedure: In the experimental set, trehalose supplied from two different manufacturers (Sigma Aldrich Co.; Hayashibara Co.) is used at 0.5 M, 1.0 M, and 2.0 M each, in each of three different media (dH2O, 1M NaCl, 2.75 M NaCl algae media). In the control set, dH2O, 1 M NaCl medium, and 2.75 M NaCl medium are prepared, all lacking trehalose. The starting density of cells used for preliminary experiments is 4.59×10^5 cells/mL. The cells are spun down and re-suspended in trehalose solutions, and further equilibrate overnight at 28° C. Cells are then re-suspended in 10 mL of its corresponding medium and transferred to 25 mL canted neck tissue culture flasks (Falcon Co.). The cultures are allowed to settle and proliferate without shaking under low light (11 μE/m2/sec) for nine days. Cells are counted again to determine whether cells would multiply in each respective medium without intervening sub-culture. […] After a week of drying, all the cells are re-hydrated in 5 mL of 1M NaCl growth medium in the morning and viable cells are counted the same afternoon. […] Viability is determined by growth curves over time, by the percentage of motile cells or by the green appearance as indicative of photosynthetic activity. […]

[5] = 0.5M trehalose in F/2, 20 weeks storage in water (no nutrients)
[6] = 0.5M trehalose in F/2, 20 weeks storage, 0M control = 100%
[7] = 0.5M trehalose in F/2, 20 weeks storage, final/initial density

SMILES: OC[C@H]1O[C@H](O[C@H]2O[C@H](CO)[C@@H](O)[C@H](O)[C@H]2O)[C@H](O)[C@@H](O)[C@@H]1O [trehalose, α-D-glycosyl-α-D-glycosylpyranoside]
- Final density after storage and 3 weeks rejuvenation [1, 5]: 2.031 × 10^6 cells/ml
- % Viability [1, 6]: (93%)
- Growth [1, 7]: 0.14
- Final density after storage and 3 weeks rejuvenation [2, 5]: 6.565 × 10^7 cells/ml
- Growth [2, 7]: 2.88
- Final density after storage and 3 weeks rejuvenation [3, 5]: 2.246 × 10^7 cells/ml
- % Viability [3, 6]: (193%)
- Growth [3, 7]: 0.81
- Cell appearance of preserved samples versus controls ([4]; after rehydration, light microscope): No significant differences in cell appearance
- Cell viability after a week of drying and re-hydration ([4]; in 1M NaCl growth medium, compared with Sigma trehalose and other media): best preserved
